SMILES strings stand for the structures.

The target in this experiment is T1, recombinant human GST-Syk (Homo sapiens, UniProt P43405).
T1 construct: purchased Carna Biosciences 08-176
Kind of experiment: Homogeneous Time-Resolved Fluorescence (HTRF) assay for the recombinant human Syk enzyme. It is filed as biochemical. The following applies: recombinant human GST-Syk 5 pM, ATP 25 μM, 45 min at rt, read-out: rhSyk. How it is done: Homogeneous Time-Resolved Fluorescence (HTRF) Assay for the Recombinant Human Syk Enzyme
A recombinant GST-hSyk fusion protein was used to measure potency of compounds to inhibit human Syk activity. The recombinant human GST-Syk (Carna Biosciences #08-176) (5 pM nominal concentration) was incubated with various concentrations of the inhibitor diluted in DMSO (0.1% final concentration) for 10 minutes at rt in 15 mM Tris-HCl (pH 7.5), 0.01% tween 20, 2 mM DTT in 384 well plate format. To initiate the reaction the biotinylated substrate peptide (250 nM final concentration) that contains the phosphorylation site for Syk was added with magnesium (5 mM final concentration) and ATP (25 μM final concentration). Final volume of the reaction was 10 μL. Phosphorylation of the peptide was allowed to proceed for 45′ at rt. To quench the reaction and detect the phosphorylated product, 2 nM of a Europium-anti-phosphotyrosine antibody (Perkin Elmer #AD0161) and 70 nM SA-APC (Perkin-Elmer #CR130-100) were added together in 15 mM Tris pH 7.5, 40 mM EDTA, 0.01% tween 20. Final volume of the quenching solution was 10 μL. The resulting HTRF signal was measured after 30 minutes on a EnVision (Perkin-Elmer) reader using a time-resolved fluorescence protocol. IC50 was determined following 10-dose titration (10 μM to 0.508 nM) and four parameter logistic curve fitting using an assay data analyzer.
For `Cc1cc(Nc2cc(C(F)(F)F)ccn2)nc(-c2cnc(C3(O)CCCc4cc(C(=O)O)c(Br)cc43)s2)c1` (single isomer, unassigned) [Example 1A, 3-Bromo-5-hydroxy-5-[5-(4-methyl-6-{[4-(trifluoromethyl)pyridin-2-yl]amino}pyridin-2-yl)-1,3-thiazol-2-yl]-5,6,7,8-tetrahydronaphthalene-2-carboxylic acid], the IC50 was 1.51 nM.

With `Cc1cc(Nc2cc(C(F)(F)F)ccn2)nc(-c2cnc(C3(O)CCCc4cc(C(=O)O)c(Br)cc43)s2)c1` (single isomer, unassigned) [Example 1B, 3-Bromo-5-hydroxy-5-[5-(4-methyl-6-{[4-(trifluoromethyl)pyridin-2-yl]amino}pyridin-2-yl)-1,3-thiazol-2-yl]-5,6,7,8-tetrahydronaphthalene-2-carboxylic acid], the IC50 came to 0.51 nM.

Take `Cc1cc(Nc2cc(C(F)(F)F)ccn2)nc(-c2cnc(C3(O)CCc4cc(C(=O)O)c(F)cc43)s2)c1` (single isomer, unassigned) [Example 1C, (R or S)-6-fluoro-1-hydroxy-1-[5-(4-methyl-6-{[4-(trifluoromethyl)pyridin-2-yl]amino}pyridin-2-yl)-1,3-thiazol-2-yl]-2,3-dihydro-1H-indene-5-carboxylic acid]: the IC50 was 0.39 nM.

Take `Cc1cc(Nc2cc(C(F)(F)F)ccn2)nc(-c2cnc(C3(O)CCc4cc(C(=O)O)c(F)cc43)s2)c1` (single isomer, unassigned) [Example 1D, (R or S)-6-fluoro-1-hydroxy-1-[5-(4-methyl-6-{[4-(trifluoromethyl)pyridin-2-yl]amino}pyridin-2-yl)-1,3-thiazol-2-yl]-2,3-dihydro-1H-indene-5-carboxylic acid]: the IC50 amounted to 0.67 nM.

On to `Cc1cc(Nc2cc(C(F)(F)F)ccn2)nc(-c2cnc(C3(O)CCCc4cc(C(=O)O)c(Cl)cc43)s2)c1` (single isomer, unassigned) [Example 1E, (R or S)-3-chloro-5-hydroxy-5-[5-(4-methyl-6-{[4-(trifluoromethyl)pyridin-2-yl]amino}pyridin-2-yl)-1,3-thiazol-2-yl]-5,6,7,8-tetrahydronaphthalene-2-carboxylic acid], for which the IC50 came out at 1.16 nM.

`Cc1cc(Nc2cc(C(F)(F)F)ccn2)nc(-c2cnc(C3(O)CCCc4cc(C(=O)O)c(Cl)cc43)s2)c1` (single isomer, unassigned) [Example 1F, (R or S)-3-chloro-5-hydroxy-5-[5-(4-methyl-6-{[4-(trifluoromethyl)pyridin-2-yl]amino}pyridin-2-yl)-1,3-thiazol-2-yl]-5,6,7,8-tetrahydronaphthalene-2-carboxylic acid]: the IC50 turned out to be 0.17 nM.

As for `Cc1cc(Nc2cc(C3CC3)ccn2)nc(-c2cnc(C3(O)CCCc4cc(C(=O)O)c(F)cc43)s2)c1` (single isomer, unassigned) [Example 1G, (R or S)-5-(5-{6-[(4-cyclopropylpyridin-2-yl)amino]-4-methylpyridin-2-yl}-1,3-thiazol-2-yl)-3-fluoro-5-hydroxy-5,6,7,8-tetrahydronaphthalene-2-carboxylic acid], the IC50 was determined as 4.3 nM.

For the compound `Cc1cc(Nc2cc(C3CC3)ccn2)nc(-c2cnc(C3(O)CCCc4cc(C(=O)O)c(F)cc43)s2)c1` (single isomer, unassigned) [Example 1H, (R or S)-5-(5-{6-[(4-cyclopropylpyridin-2-yl)amino]-4-methylpyridin-2-yl}-1,3-thiazol-2-yl)-3-fluoro-5-hydroxy-5,6,7,8-tetrahydronaphthalene-2-carboxylic acid], the IC50 came out at 0.002 nM.

For `Cc1cc(Nc2cc(C(F)(F)F)ccn2)nc(-c2cnc(C3(O)CCCc4c3ccc(C(=O)O)c4F)s2)c1` (single isomer, unassigned) [Example 1J, (R or S)-1-fluoro-5-hydroxy-5-[5-(4-methyl-6-{[4-(trifluoromethyl)pyridin-2-yl]amino}pyridin-2-yl)-1,3-thiazol-2-yl]-5,6,7,8-tetrahydronaphthalene-2-carboxylic acid], the IC50 was determined as 0.04 nM.

For the origin of these results see patent publication US20150284381A1, “AMINO-PYRIDINE-CONTAINING SPLEEN TYROSINE KINASE (SYK) INHIBITORS” (MERCK SHARP & DOHME CORP., priority 2012, published 2015).
